Source: patent publication US10093675B2, “6,8-disubstituted-9-(heterocyclyl)purines, compositions containing these derivatives and their use in cosmetic and medicinal applications” (USTAV EXPERIMENTALNI BOTANIKY AV CR, V.V.I., priority 2014, dated 2018)

Columns and labels:
[1] = test system: excised wheat leaf tips (Triticum aestivum cv. Hereward); experiment: Senescence inhibition on winter wheat leaf segments (retention of chlorophyll); type: in vivo; details: 10^−4 mol/L; 96 hours in the dark; activity of kinetin set at 100%
Description: (§1) Seeds of winter wheat, Triticum aestivum cv. Hereward, were washed under running water for 24 hours and then sown on vermiculite soaked with Knop's solution. They were placed in the grown chamber at 25° C. with a 16/8 hours light period at […]. After 7 days, the first leaf was fully developed and the second leaf had started to grow. A tip section of the first leaf, approximately 35 mm long, was removed from 5 seedlings and trimmed slightly to a combined weight of 100 mg. The basal ends of the five leaf tips were placed in the wells of a microtiter polystyrene plate containing […] of a cytokinin solution each. The entire plate was inserted into a plastic box lined with paper tissues soaked in distilled water to prevent leaf sections from drying out. After 96 hours incubation in the dark at 25° C., the leaves were removed and chlorophyll extracted by heating at 80 C for 10 min in 5 ml of 80% ethanol (v/v). The sample volume was then restored to 5 ml by the addition of 80% ethanol (v/v). The absorbance of the extract was recorded at 665 nm. In addition, chlorophyll extracts from fresh leaves and leaf tips incubated in deionized water were measured. From the obtained data, the concentration with highest activity was selected for each compound tested. Relative activity of the compound at this concentration was calculated (see Table 6 below). The activity obtained for 10^−4 M kinetin (Kin) was set as 100%. The values shown are means of five replicates and the whole experiment was repeated twice.
The compounds to be tested were dissolved in dimethylsulfoxide (DMSO) and the solution brought up to 10^−3 M with distilled water. […] As summarized in Table 6 below, the presence of C-8 substitutent was beneficial and led to increase of antisenescent properties.

[2] = test system: erytroid leukemia cell line K-562; experiment: In vitro cytotoxic activity (Calcein AM), K-562; type: cell-based, human; details: 72 hours, read-out: Cell line tested/IC50 (μmol/L) K-562
Description: (§2) Because toxic compounds negatively influence metabolic processes of cells, many standard cytotoxicity assays are based on measurement of metabolisation rate of various artificial substrates. Resulting product is then quantified, for example, by means of spectrometry. The assays can be easily modified for use in 96-well plates. For evaluation of cytotoxicity of the […] of this invention, a microtiter assay based on quantification of metabolisation of Calcein AM was used. The assay is widely used in drug screening programs and in chemosensitivity testing. In live cells, Calcein AM is enzymatically hydrolysed and accumulation of resulting calcein is manifested by green fluorescence.
(§3) The following human cell lines were used for routine screening of the compounds: normal diploid fibroblasts BJ, T-lymphoblastic leukemia cell line CEM, promyelocytic leukemia cell line HL-60, erytroid leukemia cell line K-562, breast carcinoma cell line MCF-7, osteosarcoma cell line HOS and melanoma cell line G-361. The cells were maintained in Nunc/Corning 80 cm^2 plastic tissue culture flasks and cultured in cell culture medium (DMEM with 5 g/l glucose, 2 mM glutamine, 100 U/ml penicillin, 100 mmg/ml streptomycin, 10% fetal calf serum and sodium bicarbonate). The cell suspensions were prepared and diluted according to the particular cell type and the expected target cell density (2.500-30.000 cells per well based on cell growth characteristics) and pipetted (80 μl) into 96-well plates. Inoculates were allowed a pre-incubation period of 24 hours at 37° C. and 5% CO2 for stabilization. Tested compound was added in total volume of 20 μl of water at time zero. Usually, test compound was evaluated at six 3-fold dilutions. In routine testing, the highest concentration tested was 100 μM, but it could have been adjusted because of limited solubility of a compound. All drug concentrations were tested in triplicates.
(§4) Incubations of cells with the test compounds lasted for 72 hours at 37° C., in 5% CO2 atmosphere and 100% humidity. At the end of incubation period Calcein AM in PBS was added into final concentration of 1 μg/ml. After another 1 hour of incubation fluorescence (FD) was measured with the Labsystem FIA Reader Fluoroscan Ascent (UK). Growth inhibition (GI) was estimated using the following equitation: GI=(mean FDdrug exposed wells−mean FDblank)/(mean FDcontrol wells−mean FDblank)×100%. The GI50 value, the drug concentration causing 50% reduction of Calcein AM conversion, was calculated from the obtained dose response curves.

[3] = test system: osteosarcoma cell line HOS; experiment: In vitro cytotoxic activity (Calcein AM), HOS; type: cell-based, human; details: 72 hours, read-out: Cell line tested/IC50 (μmol/L) HOS
Description: as §2, §3, §4

[4] = test system: cytokinin-dependent tobacco callus Nicotiana tabacum L. cv. Wisconsin 38; experiment: Plant cell division: growth of cytokinin-dependent tobacco callus; type: cell-based; details: for Activity (%); (s.d.): relative activity at concentration with highest activity, 10^−6 M kinetin set at 100%; for Concentration with highest activity (mol/l): tobacco callus fresh weight increase after four weeks, tested 10^−8 M to 10^−4 M
Description: Cytokinin-dependent tobacco callus Nicotiana tabacum L. cv. Wisconsin 38 was maintained at 25° C. in darkness on modified MS medium, containing 4 μmol/l nicotinic acid, 2.4 μmol/l pyridoxine hydrochloride, 1.2 μmol/l thiamine, 26.6 μmol/l glycine, 1.37 μmol/l glutamine, 1.8 μmol/l myo-inositol, 30 g/l of sucrose, 8 g/l of agar, 5.37 μmol/l NAA and 0.5 μmol/l BAP. Subcultivation was carried out every three weeks. Fourteen days before the bioassay, the callus tissue was transferred to the media without BAP. Biological activity was determined from the increase in fresh callus weight after four weeks of cultivation. Five replicates were prepared for each cytokinin concentration and the entire test was repeated twice. From the obtained data, the concentration with highest activity was selected for each compound tested. Relative activity at this concentration was calculated (see Table 17 below). The activity obtained for 10^−6 M kinetin (Kin) was set as 100%.
The cytokinins to be tested were dissolved in dimethylsulfoxide (DMSO) and the solution brought up to 10^−3M with distilled water.

[5] = test system: Human diploid fibroblast BJ; experiment: In vitro cytotoxic activity (MTT); type: cell-based; details: 72 hours incubation; concentration causing 20% decrease in mitochondrial dehydrogenase activity
Description: MTT (metabolic tetrazolium toxicity) assay is a standard colorimetric assay for evaluation of cytotoxicity. Mitochondrial dehydrogenase activity converts yellow MTT into violet formazan which is measured by means of spectrometry.
Human diploid fibroblast BJ (passage 18-22) were seeded into 96-well plate (5.000 cells per well). After 6 hours cultivation medium (DMEM with 5 g/l glucose, 2 mM glutamine, 100 U/ml penicillin, 100 mmg/ml streptomycin, 10% fetal calf serum and sodium bicarbonate) was replaced with the cultivation medium containing test compounds in concentration range of 0-200 µM. Highest concentration was adjusted if the solubility of the compound was limiting. Every concentration was tested in pentaplicate. MTT was added to the cells after 72 hours incubation (final concentration 0.5 mg/ml) and incubation continued for another 3 hours. MTT was solubilised by DMSO and absorbance at 570 nm was measured. Growth inhibition (GI) was estimated using the following equitation: GI=(mean A drug exposed wells−mean Ablank/mean Acontrol wells−mean Ablank)×100%. The GI20 value, the drug concentration causing 20% decrease in mitochondrial dehydrogenase activity, was calculated from the obtained dose response curves.

[6] = test system: normal diploid fibroblasts BJ; experiment: In vitro cytotoxic activity (Calcein AM), BJ; type: cell-based, human; details: 72 hours, read-out: Cell line tested/IC50 (μmol/L) BJ
Description: as §2, §3, §4

melanoma cell line G-361 = experiment: In vitro cytotoxic activity (Calcein AM), G-361; type: cell-based, human; details: 72 hours, read-out: Cell line tested/IC50 (μmol/L) G-361
Description: as §2, §3, §4

[7] = test system: breast carcinoma cell line MCF-7; experiment: In vitro cytotoxic activity (Calcein AM), MCF-7; type: cell-based, human; details: 72 hours, read-out: Cell line tested/IC50 (μmol/L) MCF7
Description: as §2, §3, §4

[8] = test system: T-lymphoblastic leukemia cell line CEM; experiment: In vitro cytotoxic activity (Calcein AM), CEM; type: cell-based, human; details: 72 hours, read-out: Cell line tested/IC50 (μmol/L) CEM
Description: as §2, §3, §4

[9] = test system: Salmonella typhimurium histidien auxotrophs TA98 and TA100; experiment: Ames test; type: cell-based; details: 2.5 to 5000 μg/plate; presence and absence of Aroclor-induced rat liver S9
In short: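 Strains TA98 and TA100 exposed to compounds in DMSO at 2.5, 5.0, 15, 50, 500, 1500 and 5000 μg/plate following standard Ames/Maron protocols.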

[10] = test system: detached leaves of Triticum aestivum cv. Hereward; experiment: Membrane lipid peroxidation (MDA, TBA method) in detached wheat leaves during dark senescence; type: in vivo; details: four days in the dark, Control 18.9 (±2.2)
Description: A typical symptom associated with senescence as a direct consequence of increased reactive oxygen species is lipid peroxidation. Therefore the levels of MDA, a decomposition product of lipid peroxidation, were measured in detached wheat leaves that were exposed to the prepared novel derivatives and kinetin for four days in the dark as described in Example 8. MDA levels were measured using a thiobarbituric acid (TBA) method. In detail, 100 mg of fresh plant material was homogenized by high speed shaking in a ball mill (MM301, Retsch, Germany) with 1 mL of 80% methanol. The crude extract was centrifuged at 10,000×g for 5 min, and 100 μL aliquot of supernatant was vortexed with 100 μL of 0.5% (w/v) TBA containing 0.1% (w/v) trichloroacetic acid, and the resulting solution was then incubated for 30 min at 95° C. The samples were quickly cooled on ice and recentrifuged for 5 min at 1000×g. The absorbance of supernatant was measured at 532 nm with background subtraction at 600 nm and the amount of MDA-TBA complex was calculated from the coefficient of absorbance 155 mM^−1cm^−1.
as §1

Compound	Activity (%) (s.d.), retention of chlorophyll [1]	IC50 [2] [µmol/L]	IC50 [3] [µmol/L]	Activity (%); (s.d.) [4]	Concentration with highest activity (mol/l) [4]	GI20 [5] [µM]	IC50 [6] [µmol/L]	IC50 (melanoma cell line G-361) [µmol/L]	IC50 [7] [µmol/L]	IC50 [8] [µmol/L]	mutagenic response [9]	MDA (nmol/g FW) [10]
Fc1cccc(CNc2ncnc3c2nc(Cl)n3C2CCCCO2)c1 (stereo not shown) [Compound 7]	110 (±2) %	> 50	> 100	114 (±5) %	10^−6-10^−4 mol/l	>200	> 100	> 100	> 100	> 100	–	–
COc1cccc(CNc2ncnc3c2nc(Cl)n3C2CCCCO2)c1 (stereo not shown) [Compound 8]	125 (±6) %	> 100	> 100	119 (±7) %	10^−6-10^−4 mol/l	>200	> 100	> 100	> 100	> 100	–	–
COc1cccc(CNc2ncnc3c2nc(Br)n3C2CCCCO2)c1 (stereo not shown) [Compound 28]	126 (±7) %	> 50	> 50	107 (±2) %	10^−6-10^−4 mol/l	>100	> 50	> 50	> 50	> 50	–	–
CSc1nc2c(NCc3cccc(O)c3)ncnc2n1C1CCCCO1 (stereo not shown) [Compound 149]	–	> 50	> 50	107 (±1) %	10^−6-10^−4 mol/l	>100	> 50	> 50	> 50	> 50	no positive mutagenic responses	–
COc1cccc(CNc2ncnc3c2nc(SC)n3C2CCCCO2)c1 (stereo not shown) [Compound 150]	–	> 50	> 50	105 (±2) %	10^−6-10^−5 mol/l	>100	> 50	> 50	> 50	> 50	no positive mutagenic responses	–
CSc1nc2c(NCc3cccc(F)c3)ncnc2n1C1CCCCO1 (stereo not shown) [Compound 151]	–	> 50	> 50	109 (±5) %	10^−6-10^−4 mol/l	>100	> 50	> 50	> 50	> 50	no positive mutagenic responses	–
COc1nc2c(NCc3ccco3)ncnc2n1C1CCCO1 (stereo not shown) [Compound 206]	–	> 50	> 50	110 (±3) %	10^−6-10^−4 mol/l	>100	> 50	> 50	> 50	> 50	–	10.5 (±0.4) nmol/g FW
COc1nc2c(NCC=C(C)CO)ncnc2n1C1CCCO1 (stereo not shown) [Compound 208]	–	> 50	> 50	119 (±7) %	10^−6-10^−4 mol/l	>100	> 50	> 50	> 50	> 50	no positive mutagenic responses	–
CSc1nc2c(NCc3ccco3)ncnc2n1C1CCCO1 (stereo not shown) [Compound 216]	–	> 50	> 50	103 (±4) %	10^−6-10^−4 mol/l	>100	> 50	> 50	> 50	> 50	no positive mutagenic responses	–
CSc1nc2c(NCC=C(C)C)ncnc2n1C1CCCO1 (stereo not shown) [Compound 218]	–	> 50	> 50	113 (±5) %	10^−6-10^−4 mol/l	>100	> 50	> 50	> 50	> 50	no positive mutagenic responses	–
